Paper PMC9253272 (Frontiers in Pharmacology, 2022)
Where a name gives a salt, the structure may show the parent alone. Read-outs that look alike come from different tables or passages of the source.

Experiments:
AMPK [1] = assay: AMPK phosphorylation (p-AMPK Thr 172) by immunoblot in BV-2 microglial cells; format: cell-based; details: for onset time of AMPK activation: 1 mM, time course; for concentration at which activation of AMPK (p-AMPK) was observed (lowest effective): 1 h incubation
Procedure: When reached 80% confluence, cells were seeded in 12-well or 6-well plates to perform further experiments.

BV-2 microglial cells [2] = assay: LPS-induced nitrite release in BV-2 microglial cells (Griess reagent); format: cell-based; details: BV-2 cells; for IC50: pre-incubation 1 h (0.03-2.0 mM), then LPS 24 h
Procedure: (§1) In brief, 50 μl cell supernatants were mixed with 50 μl Griess regent in 96-well-plate and reacted for about 5–10 min at room temperature. Read plate at 540 nm by a Microplate reader (Infinite M200, Molecular Device).
Supernatants were collected for nitrite analysis.

[3] = tested on: primary rat cortical neurons; assay: Oxygen and glucose deprivation (OGD) of primary cortical neurons, MTT viability; format: cell-based; details: 0.5 and 1 mM, 24 h pre-treatment, OGD 3 h, reperfusion 24 h
Procedure: The culture medium was replenished with Neurobasal medium (Life Technologies) supplemented with 2% B27 (Life Technologies) 5 h after isolation, and half of the culture media was changed every 2 days, after 6 days of culture, and the neurons were used for further experiments.
Cells were transferred to a hypoxia incubator with 1% oxygen and 5% CO2 for 3 h. […] Control cells were not submitted to OGD and were maintained under normal conditions.

[4] = rat plasma, 50 mg/kg i.p.
tMCAO rats = details: 50 mg/kg/day i.p., four weeks after tMCAO
AMPK [5] = tested on: AMPK; parameters: method as in Ma et al., 2014; details: ref Ma et al., 2014; cited from earlier work
in vivo [6] = details: male, Sprague-Dawley, rat, plasma, ip, 50 mg/kg
in vivo [7] = details: male, Sprague-Dawley, rat, brain, 50 mg/kg
in vitro = details: mouse, BV-2 microglial cells
From the text: (§2) The Michaelis-Menten equation with one saturable component was fit to the corrected uptake rate and the estimated Km and Vmax values are presented.

BV-2 microglial cells [8] = assay: Cellular pharmacokinetics: uptake of metformin into BV-2 microglia (LC-MS/MS); details: BV-2 cells
From the text: as §2

BV-2 microglial cells [9] = details: BV-2 cells, 1 mM, 1 h pre-incubation, LPS 200 ng/ml
Procedure: as §1
Data were presented as mean ± SD, statistical analysis was performed with one-way ANOVA followed by a Dunnett’s post hoc tests, ^∗∗ p < 0.01 versus LPS group; ^## p < 0.01, versus LPS with SHY-treated group. […] Results are expressed as mean ± SD (n = 5). Data are presented as mean ± SD, statistical analysis was performed with one-way ANOVA, followed by a Dunnett’s post hoc tests, ^∗∗ p < 0.01 versus LPS group; ^# p < 0.05, versus LPS with SHY-treated group.

[10] = tested on: rat primary cortical neurons; details: microglia treated with 1 mM, LPS 24 h; neurons 24 h
Procedure: Primary rat cortical microglia cells were prepared from newborn to 2–3 days-old SD strains. […] The supernatant was discarded after centrifuging at 1,100 × rpm for 10 min, the pellet was resuspended, and cortices were fully dissociated by pipetting, the cell suspension was filtered through a 70 μm mesh and transferred into a 75-cm^2 culture flask with poly-L-lysine (PLL, Sigma-Aldrich) coated. Flasks were incubated at 37°C and 5% CO2, and half of the culture media were changed every 2 days, after 2 weeks of culture, primary microglia were harvested by shaking the flask for 2 h at 200 × rpm, and then seeded into new plates pre-coated with PLL. […]
The neuron culture medium was collected and LDH was measured by the LDH assay kit (BioAssay Systems) according to the manufacturer’s instructions.
Data were presented as mean ± SD, statistical analysis was performed with one-way ANOVA followed by a Dunnett’s post hoc tests, ^∗∗ p < 0.01 versus LPS group; ^## p < 0.01, versus LPS with SHY-treated group. […] Results are expressed as mean ± SD (n = 5). […] Cell viability was analyzed by MTT assay, results are expressed as mean ± SD (n = 8). […]

AMPK [11] = details: initial screening; ref Zhen et al., 2019; cited from earlier work
[12] = 15 min uptake, Michaelis-Menten fit
[13] = rat brain, metformin measured, 50 mg/kg i.p.

With CN(C)C(=N)N=C(N)N [metformin hydrochloride] the “onset time of AMPK activation” value (AMPK [1]; BV-2 cells) was 4 h, the “concentration at which activation of AMPK (p-AMPK) was observed (lowest effective)” value (AMPK [1]; BV-2 cells) was 1.0 mM and the IC50 (BV-2 microglial cells [2]; Mus musculus) was 1070 µM. The “OGD-induced neuronal injury (cell viability, MTT)” value [3] was “did not elicit such an effect”, the CLz ([4]; metformin measured) was 7,068.89 ± 949.45 ml/hr/kg and the Cmax ([4]; metformin measured) was 6640 ± 2110 ng/mL. The Vz ([4]; metformin measured) was 79,683.93 ± 23,176.87 ml/kg, the “atrophic volume of the ischemic brain versus vehicle” value (tMCAO rats) was “effectively reduced” and the “treatment time required to activate AMPK” value (AMPK [5]) was at least 4 h. For the same molecule, the AUC (in vivo [6]) was 7170 ± 275 ng·h/mL, the AUC(0-inf) (in vivo [6]) was 7170 ± 280 ng·h/mL and the AUC(0-t) (in vivo [6]) was 6590 ± 270 ng·h/mL. The Cmax (in vivo [6]) was 6630 ± 2100 ng/mL, the MRT inf (in vivo [6]) was 6.06 ± 1.73 h and the MRT last (in vivo [6]) was 3.48 ± 0.65 h. For the same molecule, the t max (in vivo [6]) was 0.5 h, the concentration at 1 h (in vivo [7]; intraperitoneal) was 190 ± 32 ng/g and the concentration at 2 h (in vivo [7]; intraperitoneal) was 110 ± 12 ng/g. The AUC(0-inf) (in vivo [7]; ip) was 1890 ± 80 ng·h/mL, the AUC(0-t) (in vivo [7]; ip) was 1600 ± 180 ng·h/mL and the Cmax (in vivo [7]; ip) was 320 ± 80 ng/g. For the same molecule, the MRT inf (in vivo [7]; ip) was 12.2 ± 2.9 h, the MRT last (in vivo [7]; ip) was 7.71 ± 0.45 h and the t max (in vivo [7]; ip) was 0.5 h. For the same molecule, the Km at 15 min (in vitro) was 7.1 ± 1.7 mM and the “Vmax of metformin uptake” value (BV-2 microglial cells [8]; [12]) was 4.6 ± 0.6 nmol/min/mg protein.

With CN(C)C(=N)NC(=N)N.O=C(O)[C@H](O)[C@@H](O)CO [SHY-01, metformin threonate] the “p-AMPK level compared to the same concentration of metformin hydrochloride” value (AMPK [1]; BV-2 cells, 0.3 mM, 1 h) was “significantly higher”, the “effect on LPS-reduced AMPK phosphorylation” value (AMPK [1]; BV-2 cells, 1 mM pre-incubation, LPS 200 ng/ml 0-4 h) was “significantly reverse” and the “onset time of AMPK activation” value (AMPK [1]; BV-2 cells) was 0.5 h. For the same molecule, the “concentration at which activation of AMPK (p-AMPK) was observed (lowest effective)” value (AMPK [1]; BV-2 cells) was 0.3 mM, the “time to activation of AMPK after treatment” value (AMPK [1]; discussion statement) was at most 30 min and the IC50 (BV-2 microglial cells [2]) was 302 µM. For the same molecule, the “OGD-induced neuronal injury (cell viability, MTT)” value [3] was “significantly prevented”, the “inhibition of LPS-induced pro-inflammatory cytokine expression (TNF-α, IL-1β, iNOS) compared with metformin hydrochloride” value (BV-2 microglial cells [9]) was “stronger effect” and the “half-life (t 1/2)” value [4] was 8.22 ± 5.52 h. For the same molecule, the “maximum plasma concentration (Cmax)” value [4] was 11.29 ± 3.9 ng/mL, the “AUC (0−t)” value ([4]; metformin measured) was 11470 ± 35 ng·h/mL and the “AUC (0−∞)” value ([4]; metformin measured) was 12240 ± 40 ng·h/mL. The CLz ([4]; metformin measured) was 4,116.73 ± 422.20 ml/hr/kg, the Cmax ([4]; metformin measured) was 11300 ± 3900 ng/mL and the “MRT (0−t)” value ([4]; metformin measured) was 2.69 ± 0.45 H. The “MRT (0−∞)” value ([4]; metformin measured) was 5.06 ± 2.54 H, the Vz ([4]; metformin measured) was 50,055.01 ± 36,787.23 ml/kg and the “t 1/2” value ([4]; metformin measured) was 8.22 ± 5.524 H. The t max ([4]; metformin measured) was 0.5 H, the “metformin concentration in the brain” value (1 h after 50 mg/kg i.p.) was 0.32 ± 0.023 µg/g and the “metformin concentration in the brain” value (2 h after 50 mg/kg i.p.) was 0.25 ± 0.032 µg/g. The “AUC (0−t)” value [13] was 1870 ± 230 ng·h/mL, the “AUC (0−∞)” value [13] was 2050 ± 180 ng·h/mL and the Cmax [13] was 520 ± 110 ng/mL. The “MRT (0−t)” value [13] was 5.73 ± 0.63 h, the “MRT (0−∞)” value [13] was 8.19 ± 0.66 h and the t max [13] was 0.5 h. For the same molecule, the “Rope climbing test, difference between SHY-01 and metformin hydrochloride” value (tMCAO rats) was “did not differ”, the “atrophic volume of the ischemic brain versus vehicle” value (tMCAO rats) was “effectively reduced” and the “body weight changes, difference between SHY-01 and metformin hydrochloride” value (tMCAO rats) was “did not differ”. The “brain atrophy compared with metformin hydrochloride” value (tMCAO rats) was “more potent reduction”, the “neurologic score compared with metformin hydrochloride” value (tMCAO rats) was “significantly better improvement” and the “spatial learning in the Morris water maze test compared with metformin hydrochloride” value (tMCAO rats) was “significantly better improvement”. For the same molecule, the “LDH release of neurons in response to conditioned medium of LPS-activated microglia, versus control or metformin hydrochloride” value [10] was “remarkably decrease”, the “potency on AMPK activation among the metformin salts screened” value (AMPK [11]) was “strongest potency” and the “accumulation of metformin compared with the same concentration of metformin hydrochloride” value (BV-2 microglial cells [8]) was “more rapid”. For the same molecule, the “Vmax of metformin uptake” value (BV-2 microglial cells [8]; [12]) was 9.5 ± 1.2 nmol/min/mg protein, the “intracellular metformin contents compared with metformin hydrochloride” value (BV-2 microglial cells [8]; LC-MS/MS) was “elevated intracellular metformin contents” and the Km (BV-2 microglial cells [8]; read-out: Km of metformin uptake, 15 min uptake, Michaelis-Menten fit) was 7.2 ± 1.5 mM.

In the case of c1cc(-c2cnn3cc(-c4ccc(OCCN5CCCCC5)cc4)cnc23)ccn1 [compound C], the “effect on the inhibitory effect of SHY-01 on LPS-induced nitrite, TNF-α and IL-1β” value (BV-2 microglial cells [2]; compound C 10 μM 1 h pre-incubation, SHY-01 1 mM, LPS 200 ng/ml) is reported as “abolished”.
